# Data as given in PubChem BioAssay (NCI).
#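 In this assay, cells in 96-well plates receive the compound at five concentrations for 48 hours. Endpoints are linearly interpolated between the surrounding concentrations. Here, GI50 denotes the concentration required for 50% inhibition of growth. TGI denotes the concentration required for complete inhibition of growth.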
# What was measured:
# Assay in all cases: NCI anticancer screen, dose series, 48 h
# HCT-15 colon = system: HCT-15 colon
# OVCAR-5 ovarian = system: OVCAR-5 ovarian
# HL-60(TB) leukemia = system: HL-60(TB) leukemia
# UACC-62 melanoma = system: UACC-62 melanoma
# SN12C renal = system: SN12C renal
# COLO 205 colon = system: COLO 205 colon
# ACHN renal = system: ACHN renal
# KM12 colon = system: KM12 colon
# SF-539 CNS = system: SF-539 CNS
# MDA-MB-435 = system: MDA-MB-435
Structure (SMILES),TGI (HCT-15 colon) [µM],TGI (OVCAR-5 ovarian) [µM],TGI (HL-60(TB) leukemia) [µM],TGI (UACC-62 melanoma) [µM],TGI (SN12C renal) [µM],TGI (COLO 205 colon) [µM],TGI (ACHN renal) [µM],TGI (KM12 colon) [µM],TGI (SF-539 CNS) [µM],GI50 (HCT-15 colon) [µM],GI50 (OVCAR-5 ovarian) [µM],GI50 (HL-60(TB) leukemia) [µM],GI50 (UACC-62 melanoma) [µM],GI50 (SN12C renal) [µM],GI50 (COLO 205 colon) [µM],GI50 (ACHN renal) [µM],GI50 (KM12 colon) [µM],GI50 (SF-539 CNS) [µM],GI50 (MDA-MB-435) [µM],TGI (MDA-MB-435) [µM]
CCOC(OC1=C(C#N)CCC1)C(CC)[Se]c1ccccc1 (stereo not given),> 100,54.8,38.4,61.9,32.3,53.9,81.9,> 100,37.6,,,,,,,,,,,
Cn1nnnc1[N-]Cc1ccccc1.[Au+].c1ccc([PH+](c2ccccc2)c2ccccc2)cc1,9.18,28.4,1.45,7.12,17,5.81,10.6,38,23.2,2.53,14.8,0.509,1.72,5.01,2.29,4.29,11.1,8.93,,
Cc1ccc(S(=O)(=O)ON/N=C2/C3OC3[C@@H]3CCCC[C@H]23)cc1 (stereo not given in full),> 100,,> 100,> 100,> 100,> 100,> 100,> 100,> 100,,,,,,,,,,,
O=C(O)c1[nH]c(C(=O)O)c(CC(F)(F)C(F)(F)C(F)(F)F)c1CC(F)(F)C(F)(F)C(F)(F)F,> 100,> 100,> 100,> 100,> 100,> 100,> 100,> 100,> 100,,,,,,,,,,,
CC1(C)OC2C(=O)OC(COCc3ccccc3)C2O1 (stereo not given),> 100,> 100,> 100,> 100,> 100,> 100,> 100,> 100,> 100,,,,,,,,,,,
C=C1C(O)C2C(=C(CC(C)C)C13CC3)C(=O)C(C)(C)C2OC (stereo not given),> 100,> 100,,> 100,> 100,> 100,> 100,> 100,> 100,> 100,> 100,,> 100,> 100,> 100,> 100,> 100,> 100,> 100,> 100
Cn1cc(NC(=O)c2cc(NC(=O)CCCCCC(=O)Nc3cc(C(=O)Nc4cc(C(=O)NCCC(=N)N)n(C)c4)n(C)c3)cn2C)cc1C(=O)NCCC(=N)N,> 100,> 100,> 100,> 100,> 100,> 100,> 100,> 100,> 100,,,,,,,,,,,
O=C(Nc1ccc(Br)cc1)c1cc(Br)cc(Br)c1O,13.5,19.6,,15,12.9,4.59,6.66,8.09,12.4,3.2,2.7,,2.56,2.77,2.33,2.31,2.59,2.89,2.27,6.09
Cc1ccc(C)c(NC(=O)/C(=N\NC(N)=S)C(C#N)c2ccccc2)c1 (stereo not given),> 100,> 100,> 100,> 100,> 100,> 100,> 100,> 100,> 100,,,,,,,,,,,
CN(C)CCNC(=O)c1cc([N+](=O)[O-])cc2ccc(-c3ccccc3)nc12,> 56.6,27.6,21.7,15.7,> 62.7,21.6,28.5,49.6,27.2,,,,,,,,,,,
COc1ccc(/C=[N+](\[O-])[C@H](COCc2ccccc2)c2ccccc2)cc1,,> 100,77.2,,,> 100,> 100,> 100,> 100,,,,,,,,,,,
c1cc2c(cnc3cscc32)s1,> 100,> 100,> 100,,> 100,,> 100,> 100,> 100,,,,,,,,,,,
Cc1c2ncccc2c(C)c2c1[nH]c1ccccc12,54.3,27.1,,29.2,26,26.9,26.5,29,26,,,,,,,,,,,
C=C1C(=O)O[C@H]2[C@H]1CC/C(COC(=O)c1ccc(C(=O)O)s1)=C\CC[C@@]1(C)O[C@@H]21,4.72,10.1,,3.23,3.5,3.92,3.02,8.46,3.04,1.65,3.05,,1.65,1.74,2.01,1.63,2.82,1.62,1.92,4
CC(SC1=CC(=O)c2c(O)ccc(O)c2C1=O)C(=O)O (stereo not given),> 55.3,> 100,> 41.9,36.6,> 77.7,> 60.3,> 64.1,> 100,> 100,,,,,,,,,,,
[Cl][Sn]([c]1ccccc1)[c]1ccccc1,18,27.3,6.46,9.57,22.9,38.2,24.2,18,22.6,4.48,13.6,2.29,3.22,9.18,7.45,11.9,12.4,9.43,,
COc1cc2ccc3c4cc(OC)c(OCc5ccccc5)cc4cnc3c2cc1OC,,> 100,,> 100,> 100,> 100,> 100,> 100,,,,,,,,,,,,
c1cncc(C2c3[nH]c4ccccc4c3CCN2CCN2CCCCC2)c1 (stereo not given),> 100,> 100,> 100,> 100,> 100,,> 100,> 100,> 100,,,,,,,,,,,
C=CCN(N=O)C(=O)N(CCC)CCCC(NC(C)=O)C(=O)NCc1ccccc1 (stereo not given),> 100,> 100,> 100,> 100,> 100,> 100,> 100,> 100,> 100,,,,,,,,,,,
O=C1C=C(c2cc(Br)c(O)c(Br)c2)/C(=C/c2cc(Br)c(O)c(Br)c2)O1,> 75,> 75,,38.2,> 75,> 75,> 75,> 75,> 75,28.8,64.8,,16.8,36.5,29.8,29.4,37.6,24,33.6,> 75

Structure (SMILES),TGI (HCT-15 colon) [µM],TGI (OVCAR-5 ovarian) [µM],TGI (HL-60(TB) leukemia) [µM],TGI (UACC-62 melanoma) [µM],TGI (SN12C renal) [µM],TGI (COLO 205 colon) [µM],TGI (ACHN renal) [µM],TGI (KM12 colon) [µM],TGI (SF-539 CNS) [µM],GI50 (HCT-15 colon) [µM],GI50 (OVCAR-5 ovarian) [µM],GI50 (HL-60(TB) leukemia) [µM],GI50 (UACC-62 melanoma) [µM],GI50 (SN12C renal) [µM],GI50 (COLO 205 colon) [µM],GI50 (ACHN renal) [µM],GI50 (KM12 colon) [µM],GI50 (SF-539 CNS) [µM],GI50 (MDA-MB-435) [µM],TGI (MDA-MB-435) [µM]
CCCN(CCCCC(NC(C)=O)C(=O)NCc1ccccc1)C(=O)NC (stereo not given),> 100,> 100,,> 100,> 100,> 100,> 100,> 100,> 100,,,,,,,,,,,
COC(=O)/C(=N/NC(C)(C)C)C(C(=O)C=C(C)C)C(=O)C(=O)Nc1ccc(Cl)cc1C (stereo not given),> 100,> 100,> 100,> 100,> 100,> 100,> 100,> 100,> 100,,,,,,,,,,,
CC(=O)O/C(C)=C\C(=O)O/N=C(\N)c1ccc(C)cc1,,> 100,77.3,56.7,57.4,> 100,> 100,> 100,57.4,,,,,,,,,,,
O=C(N=Nc1c(O)[nH]c2ccccc12)c1ccccc1O,> 100,> 100,> 100,> 100,> 100,> 100,> 100,> 100,> 100,,,,,,,,,,,
CC(C)(C)C([O-])=C1C(=O)c2ccccc2C1=O.CC(C)(C)C([O-])=C1C(=O)c2ccccc2C1=O.CC[O-].CC[O-].[Ti+4],> 100,> 100,67,28.8,> 100,44.7,> 100,> 100,> 100,29.5,34.8,27.1,11.9,37.7,22.7,35.2,37.6,50.8,,
CC(C)(C)N=CN1CCC(C(c2ccccc2)c2ccccc2)CC1,> 100,> 100,,> 100,> 100,34.2,> 100,> 100,> 100,,,,,,,,,,,
NC(N)=N/N=C/c1c(-c2cc(Cl)sc2Cl)nc2n1CCS2,16.6,14.7,,16,14.2,,15.1,16.1,15.2,9,7.87,,8.62,7.18,,8.31,8.33,7.43,11.1,19.7
CCOC(=O)c1c2ccc(/C=C/C(=O)OC)ccc-2c(C(=O)OCC)c1N,> 100,> 100,> 100,> 100,,> 100,> 100,> 100,> 100,,,,,,,,,,,
CCOC(=O)C(=O)Nc1c(C)cccc1CC,,> 100,> 100,> 100,> 100,,> 100,> 100,> 100,,,,,,,,,,,
CCCCCCCCCCCCC(SCCNC(=O)CCNC(=O)C(O)C(C)(C)COP(=O)(O)OP(=O)(O)OCC1OC(n2cnc3c(N)ncnc32)C(O)C1OP(=O)(O)O)C(=O)NCC(N)=O (stereo not given),> 100,> 100,> 100,> 100,> 100,> 100,> 100,> 100,> 100,,,,,,,,,,,
O=c1oc2c3ccc4ccccc4c3n(Cc3nc4ccccc4[nH]3)c2c2ccccc12,> 100,> 100,20,> 100,> 100,> 100,> 100,> 100,> 26.2,,,,,,,,,,,
O=C1c2cccc3cc([N+](=O)[O-])cc(c23)C(=O)N1CCCN1CCN(CCCN2C(=O)c3cccc4cc([N+](=O)[O-])cc(c34)C2=O)CC1,> 100,> 100,12.8,1.65,> 100,2.67,4.28,,12,,,,,,,,,,,
COc1ccc2c(C3(O)CCNCC3)c[nH]c2c1,> 100,> 100,> 100,> 100,> 100,> 100,> 100,> 100,> 100,,,,,,,,,,,
COC(=O)C12C3C4C1C1C2C3C41I (stereo not given),> 100,> 100,> 100,> 100,> 100,> 100,> 100,,> 100,,,,,,,,,,,
Cc1cc2occ(C)c(=O)c2c2c1OC(C)(C)S2,> 100,> 100,> 100,> 100,> 100,> 100,> 100,> 100,> 100,,,,,,,,,,,
CCCCCCCCCCCC(=O)C1=C(O)C(O)CCC1=O (stereo not given),27.3,80.2,38.8,25.5,78.3,28.9,56.9,43.2,45.4,,,,,,,,,,,
c1ccc(COc2ccc3[nH]c4c(ncc5[nH]c6ccccc6c54)c3c2)cc1,14.9,33.6,4.35,35.3,29.7,47.1,31.6,29.5,29.4,,,,,,,,,,,
c1cc(-c2sc(-c3ccncc3)c(-c3ccncc3)c2-c2ccncc2)ccn1,56.7,47.2,,27.8,46.5,27.4,42.9,65.5,35,,,,,,,,,,,33.4
CCc1cccc(C)c1NC(=O)CC1Sc2ccccc2NC1=O (stereo not given),> 100,> 100,47.3,> 100,> 100,> 100,> 100,> 100,> 100,,,,,,,,,,,
CCOC(=O)/C=C(/CN1C(=O)c2ccccc2C1=O)c1ccccc1,> 100,> 100,,> 100,> 100,> 100,> 100,> 100,> 100,,,,,,,,,,,
